Key:
[1] = system: IL-6; assay: IL-6 ELISA, HCA2 cells induced to senesce by oncogenic RAS or MKK6 overexpression; format: cell-based, human; conditions: 500 nM corticosterone, 100 nM cortisol, 6 days
Description: (FIG. 12A) Senescent X-irradiated with 10 Gy (Sen (XRA)) HCA2 fibroblasts were incubated in medium plus 10% serum containing the indicated concentrations of corticosterone or the highest concentration of DMSO (vehicle control). The cells were given corticosterone or DMSO immediately after irradiation and analyzed 6 days later. The cells were washed and incubated in serum-free medium without corticosterone to generate conditioned media. Conditioned media from pre-senescent (Pre) and control or corticosterone-treated Sen (XRA) cells were analyzed by ELISA for IL-6. (FIG. 12B) Cells were treated, and conditioned media were generated and analyzed as described in (FIG. 12A) except cortisol was used at the indicated concentrations. (FIG. 12C) Conditioned media were collected from presenescent (PRE) or senescent (XRA) cells that were treated with DMSO, corticosterone ([…]), or cortisol (100 nM) as described in (FIG. 12A). The conditioned media were analyzed by antibody arrays. Average signal from PRE and XRA DMSO cells was used as the baseline. Signals higher than baseline are light gray (see +1 on scale to right); signals lower than baseline are dark gray as illustrated by PRE DMSO (see −1 on scale at right). […]
Conditioned media were filtered and stored at −80° C. Cell numbers were determined in every experiment. […] Data were normalized and expressed as pg/ml/cell/24 h.

[2] = system: Sen (XRA) HCA2 cells; assay: Senescent phenotypes of Sen (XRA) HCA2 cells (SA-Bgal, BrdU labeling, 53BP1 foci); format: cell-based, human; conditions: 500 nM corticosterone or 100 nM cortisol, 7 days
Description: Conditioned media from presenescent (Pre) and the control and glucocorticoid-treated Sen (XRA) cells were analyzed by ELISA for IL-6. […] The percentage of presenescent (Pre) and Sen (XRA) cells that express SA-Bgal were scored (upper panel). A representative field corresponding to each condition is also shown (bottom panels). […] The percentage of cells with >2 53BP1 nuclear foci was determined using CELL PROFILER software. At least 200 cells were analyzed per condition.
HCA2 human neonatal foreskin, IMR-90 human fetal lung fibroblasts and T47D human breast cancer cells were obtained and cultured in 3% O2 and 10% CO2 as previously described (Coppe et al., 2008, PLoS Biol. 6:2853-2868; Rodier et al., 2009, Nature Cell Biol. 11:973-979; Coppe et al., 2010, PLoS ONE 5:e9188). Cells were induced to senesce by X-irradiation (10 Gy) or lentiviral expression of oncogenic RAS or MAP kinase kinase 6 (MKK6), as described (Coppe et al., 2008, PLoS Biol. 6:2853-2868; Rodier et al., 2009, Nature Cell Biol. 11:973-979; Freund et al., 2011, EMBO J. 30:1536-1548). Pre-senescent and senescent cells had 24-h BrdU labeling indices of >75% and <10% respectively (Rodier et al., 2009, Nature Cell Biol. 11:973-979); <10% and >70% respectively stained positive for senescence-associated beta-galactosidase activity (Dimri et al., 1995, Proc. Natl. Acad. Sci. USA 92:9363-9367) (Biovision senescence detection kit). HEK293FT packaging cells (Invitrogen) were used to generate lentiviruses. Corticosterone, cortisol and RU-486 were obtained from Sigma-Aldrich.

Compound: C[C@]12C[C@H](O)[C@H]3[C@@H](CCC4=CC(=O)CC[C@@]43C)[C@@H]1CC[C@@H]2C(=O)CO [corticosterone]
- suppression of senescence-associated IL-6 secretion [1]: effective
- fraction of cells that expressed SA-Bgal [2]: no effect on the fraction of cells that expressed SA-Bgal
- number of persistent DNA damage foci (53BP1) [2]: no effect on the number of persistent DNA damage foci
- senescence growth arrest (24 h BrdU labeling index) [2]: maintained their low 24 h BrdU labeling index

Compound: C[C@]12CCC(=O)C=C1CC[C@@H]1[C@@H]2[C@@H](O)C[C@@]2(C)[C@H]1CC[C@]2(O)C(=O)CO [cortisol]
- suppression of senescence-associated IL-6 secretion [1]: effective
- fraction of cells that expressed SA-Bgal [2]: no effect on the fraction of cells that expressed SA-Bgal
- number of persistent DNA damage foci (53BP1) [2]: no effect on the number of persistent DNA damage foci
- senescence growth arrest (24 h BrdU labeling index) [2]: maintained their low 24 h BrdU labeling index

Reference: patent US9884065B2, “Inhibiting activity of senescent cells using a glucocorticoid” (Buck Institute for Research on Aging, priority 2011, dated 2018)
